Consider 9 compounds from article PMC12147132 (2025).

Assay [1] deals with AD-aptamer subunits L1F + L2Q (DNA, aptamer) ATAACGCATTTTGTTATGCGGAGGAAGGTAT/AATGCGTTATTAGAATT/ATACCTGGGGGAGTATTAACATGTTCCATCTT/TTAAATCAAGATGGAAC
The assay can be described thus: not stated in material (Figure S4).

The test system is the same in assay [2]. The assay can be described thus: not given in the source (Figure S2).
Assay [3] has as its system D1/D2 (AD-stabilized Mg2+-dependent DNAzyme; same sequences as constituent AB') (DNA, aptamer) GTCCTCAGCGATTACTATGCGGAGGAAGGTAT/ATACCTGGGGGAGTATTAGTACACCCATGTTCCTGA
The assay can be described thus: DNAzyme substrate cleavage fluorescence. The following applies: qualitative, AD 3-5 mM with ADA present.

In assay [4] the test system is AA' (DNA, aptamer) GTCCTCAGCGATTACTATGCGGAGGAAGGTAT/ATACCTGGGGGAGTATTAGTACACCCATGTTTCAGT
The assay can be described thus: DNAzyme substrate cleavage fluorescence. The following applies: Mg2+; qualitative; AD 4-5 mM with ADA present.

Assay [5] concerns BB' (DNA, aptamer) CTGTTCAGCGATTACTATGCGGAGGAAGGTAT/ATACCTGGGGGAGTATTAGTACACCCATGTTCCTGA
The assay can be described thus: DNAzyme substrate cleavage fluorescence. The following applies: Mg2+; qualitative; AD 4-5 mM with ADA present.

Assay [6] deals with BA' (DNA, aptamer) CTGTTCAGCGATTACTATGCGGAGGAAGGTAT/ATACCTGGGGGAGTATTAGTACACCCATGTTTCAGT
The assay can be described thus: DNAzyme substrate cleavage fluorescence. The note with it: Mg2+; qualitative; AD 4-5 mM with ADA present.

Setting [7] is: highest concentration not in material.

For `O=c1[nH]cnc2c1ncn2[C@@H]1O[C@H](CO)[C@@H](O)[C@H]1O`, the binding entry in assay [1] (setting [7]) is given as “no”.
In the case of `Nc1ncnc2c1ncn2[C@@H]1O[C@H](COP(=O)(O)OP(=O)(O)O)[C@@H](O)[C@H]1O`, in assay [2] (qualitative), the binding entry is on record as “yes”.
For `Nc1ccn([C@@H]2O[C@H](COP(=O)(O)OP(=O)(O)OP(=O)(O)O)[C@@H](O)[C@H]2O)c(=O)n1`, the binding result in assay [2] (setting [7]) is given as “no”.
Turning to `Nc1ncnc2c1ncn2[C@@H]1O[C@H](COP(=O)(O)O)[C@@H](O)[C@H]1O`, the binding result in assay [2] (qualitative) is on record as “yes”.
As to `Nc1ncnc2c1ncn2[C@@H]1O[C@H](CO)[C@@H](O)[C@H]1O`, the binding entry in assay [3], in assay [4], in assay [5] and in assay [6] was “yes” in each case. Besides, the equilibrium dissociation constant (Kd) in assay [1] (not perturbed by ADA or inosine) came to 11.8 ± 2.3 µM.
With `O=c1ccn([C@@H]2O[C@H](COP(=O)(O)OP(=O)(O)OP(=O)(O)O)[C@@H](O)[C@H]2O)c(=O)[nH]1`, in assay [2] (setting [7]), the binding result was “no”.
Regarding `Nc1ncnc2c1ncn2[C@@H]1O[C@H](COP(=O)(O)OP(=O)(O)OP(=O)(O)O)[C@@H](O)[C@H]1O`, in assay [2] (qualitative), the binding entry is given as “yes”.
Regarding `Nc1nc2c(ncn2[C@@H]2O[C@H](COP(=O)(O)OP(=O)(O)OP(=O)(O)O)[C@@H](O)[C@H]2O)c(=O)[nH]1`, the binding entry in assay [2] (setting [7]) is “no”.
Regarding `Cc1cn([C@H]2C[C@H](O)[C@@H](COP(=O)(O)OP(=O)(O)OP(=O)(O)O)O2)c(=O)[nH]c1=O`, in assay [2] (setting [7]), the binding result is “no”.

For orientation: Kd means the constant that tells how readily two partners part at equilibrium.
